Source: patent publication US20250263408A1 (Uniquest Pty Ltd, priority 2022, published 2025)
pEC50, pIC50: −log10 of the molar value.

Key:
Syk = biological target: T1, Syk (Homo sapiens, UniProt P43405); assay: Syk Biochemical Assay (ADP-Glo luminescence); conditions: ATP 40 μM final, 60 minutes, read-out: SYK Biochem IC50
T1 construct: purchased Promega
Protocol: Compounds were serially diluted in 100% DMSO, prior to an intermediate dilution in water. In a low volume white 384-well Proxiplate (Perkin Elmer), 1 μL of compound (0.4% final DMSO) was added to 3 μL of 10 ng/well Syk (Promega) and 0.2 mg/mL Poly-E4Y1 substrate (Promega) in assay buffer (final 40 mM Tris-HCl pH 7.4, 20 mM MgCl2, 0.1 mg/mL BSA) for 5 minutes. The reaction was initiated by addition of 1 μL of ATP (40 μM final) and allowed to proceed for 60 minutes at room temperature. The reaction was terminated by addition of 5 μL of ADP-Glo Reagent Mix (Promega) containing 1 mM MgCl2 for 45 minutes at room temperature. 10 μL of Kinase Detection Reagent (Promega) was added and incubated for 10 minutes at room temperature, before luminescence was measured using an Ensight Multimode Plate Reader (Perkin Elmer).

Ba/F3-Syk cells = biological target: T2, Ba/F3-Syk cells (Homo sapiens, UniProt P43405); assay: Ba/F3 Proliferation Assay, Ba/F3-Syk cells (Resazurin); format: cell-based; conditions: 48-hour incubation
T2 construct: fused on or other part: Possible but unprinted fusion partner: TEL (ETV6), the usual partner for Ba/F3 lines transformed by Syk; Nothing on a partner is printed

[1] = tested on: Ba/F3-WT (wild type) cells; assay: Ba/F3 Proliferation Assay, Ba/F3-WT (wild type) cells with mIL-3 (Resazurin); format: cell-based; conditions: Ba/F3-WT cells +mIL-3, 48-hour incubation

| Compound | pIC50 (Syk) | pEC50 (Ba/F3-Syk cells) | pEC50 ([1]; Mus musculus, BaF3, 48 h) | pEC50 [1] |
| --- | --- | --- | --- | --- |
| Cn1cc(-c2cc3ncccc3c(OCC3CNCCO3)n2)cn1 (stereo not shown) [Compound 2.1, 7-(1-methyl-1H-pyrazol-4-yl)-5-[(morpholin-2-yl)methoxy]-1,6-naphthyridine] | 7.29 | 7.03 | 5.90 | – |
| Cn1cc(-c2cc3ncccc3c(OC[C@H]3CNCCO3)n2)cn1 [Compound 2.2, 7-(1-methyl-1H-pyrazol-4-yl)-5-{[(2R)-morpholin-2-yl]methoxy}-1,6-naphthyridine] | 6.88 | 6.45 | 5.75 | – |
| Cn1cc(-c2cc3ncccc3c(OC[C@@H]3CNCCO3)n2)cn1 [Compound 2.3, 7-(1-methyl-1H-pyrazol-4-yl)-5-{[(2S)-morpholin-2-yl]methoxy}-1,6-naphthyridine] | 7.41 | 6.98 | 5.63 | – |
| C[C@@H](Oc1nc(-c2cnn(C)c2)cc2ncccc12)[C@@H]1CNCCO1 [Compound 2.5, 7-(1-methyl-1H-pyrazol-4-yl)-5-[(1R)-1-[(2S)-morpholin-2-yl]ethoxy]-1,6-naphthyridine] | 7.41 | 7.12 | 5.60 | – |
| CCn1cc(-c2cc3ncccc3c(OC[C@@H]3CNCCO3)n2)cn1 [Compound 2.6, 7-(1-ethyl-1H-pyrazol-4-yl)-5-{[(2S)-morpholin-2-yl]methoxy}-1,6-naphthyridine] | 7.81 | 7.24 | 5.81 | – |
| CC(C)n1cc(-c2cc3ncccc3c(OC[C@@H]3CNCCO3)n2)cn1 [Compound 2.7, 5-{[(2S)-morpholin-2-yl]methoxy}-7-[1-(propan-2-yl)-1H-pyrazol-4-yl]-1,6-naphthyridine] | 7.89 | 7.42 | 6.03 | – |
| COCCn1cc(-c2cc3ncccc3c(OC[C@@H]3CNCCO3)n2)cn1 [Compound 2.8, 7-[1-(2-methoxyethyl)-1H-pyrazol-4-yl]-5-{[(2S)-morpholin-2-yl]methoxy}-1,6-naphthyridine] | 7.43 | 6.71 | 5.84 | – |
| COCn1cc(-c2cc3ncccc3c(OC[C@@H]3CNCCO3)n2)cn1 [Compound 2.9, 7-[1-(methoxymethyl)-1H-pyrazol-4-yl]-5-{[(2S)-morpholin-2-yl]methoxy}-1,6-naphthyridine] | 7.39 | 6.73 | 5.63 | – |
| CC(C)(C)n1cc(-c2cc3ncccc3c(OC[C@@H]3CNCCO3)n2)cn1 [Compound 2.10, 7-(1-tert-butyl-1H-pyrazol-4-yl)-5-{[(2S)-morpholin-2-yl]methoxy}-1,6-naphthyridine] | 7.84 | 7.40 | 5.56 | – |
| c1cnc2cc(-c3cnn(C4COC4)c3)nc(OC[C@@H]3CNCCO3)c2c1 [Compound 2.11, 5-{[(2S)-morpholin-2-yl]methoxy}-7-[1-(oxetan-3-yl)-1H-pyrazol-4-yl]-1,6-naphthyridine] | 7.74 | 6.88 | – | – |
| Cn1cc(-c2cc3ncccc3c(OCC3CNCC(C)(C)O3)n2)cn1 (stereo not shown) [Compound 2.13, 5-[(6,6-dimethylmorpholin-yl)methoxy]-7-(1-methyl-1H-pyrazol-4-yl)-1,6-naphthyridine] | 7.29 | 7.10 | 5.62 | – |
| FC(F)n1cc(-c2cc3ncccc3c(OC[C@@H]3CNCCO3)n2)cn1 [Compound 2.15, 7-[1-(difluoromethyl)-1H-pyrazol-4-yl]-5-{[(2S)-morpholin-2-yl]methoxy}-1,6-naphthyridine] | 7.13 | 6.86 | 5.54 | – |
| FC(F)(F)n1cc(-c2cc3ncccc3c(OC[C@@H]3CNCCO3)n2)cn1 [Compound 2.16, 5-{[(2S)-morpholin-2-yl]methoxy}-7-[1-(trifluoromethyl)-1H-pyrazol-4-yl]-1,6-naphthyridine] | 6.65 | 6.31 | < 5.00 | – |
| FC(F)(F)c1[nH]ncc1-c1cc2ncccc2c(OC[C@@H]2CNCCO2)n1 [Compound 2.17, 5-{[(2S)-morpholin-2-yl]methoxy}-7-[5-(trifluoromethyl)-1H-pyrazol-4-yl]-1,6-naphthyridine] | 6.10 | 5.61 | < 5.00 | – |
| Cc1cc(-c2cc3ncccc3c(OC[C@@H]3CNCCO3)n2)cs1 [Compound 2.18, 7-(5-methylthiophen-3-yl)-5-{[(2S)-morpholin-2-yl]methoxy}-1,6-naphthyridine] | 7.33 | 7.11 | 5.73 | – |
| Cc1ccc(-c2cc3ncccc3c(OC[C@@H]3CNCCO3)n2)s1 [Compound 2.19, 7-(5-methylthiophen-2-yl)-5-{[(2S)-morpholin-2-yl]methoxy}-1,6-naphthyridine] | 7.16 | 6.70 | 5.56 | – |
| c1cnc2cc(-c3cnn(C4CC4)c3)nc(OC[C@@H]3CNCCO3)c2c1 [Compound 2.21, 7-(1-cyclopropyl-1H-pyrazol-4-yl)-5-{[(2S)-morpholin-2-yl]methoxy}-1,6-naphthyridine] | 7.08 | 7.21 | 5.57 | – |
| c1cnc2cc(-c3cnn(C4CCC4)c3)nc(OC[C@@H]3CNCCO3)c2c1 [Compound 2.22, 7-(1-cyclobutyl-1H-pyrazol-4-yl)-5-{[(2S)-morpholin-2-yl]methoxy}-1,6-naphthyridine] | 7.55 | 7.51 | 6.16 | – |

Now from value to compound:

| pIC50 (Syk) | pEC50 (Ba/F3-Syk cells) | pEC50 ([1]; Mus musculus, BaF3, 48 h) | pEC50 [1] | Compound |
| --- | --- | --- | --- | --- |
| 6.89 | 6.87 | 5.82 | – | C[C@H]1CNC[C@@H](COc2nc(-c3cnn(C)c3)cc3ncccc23)O1 (relative stereo) [Compound 2.24, 7-(1-methyl-1H-pyrazol-4-yl)-5-{[(rel-2S,6S)-6-methylmorpholin-2-yl]methoxy}-1,6-naphthyridine] |
| 7.41 | 7.21 | 5.82 | – | C[C@@H]1CNC[C@@H](COc2nc(-c3cnn(C)c3)cc3ncccc23)O1 (relative stereo) [Compound 2.25, 7-(1-methyl-1H-pyrazol-4-yl)-5-{[(rel-2S,6R)-6-methylmorpholin-2-yl]methoxy}-1,6-naphthyridine] |
| 6.88 | 6.66 | 5.84 | – | C[C@H]1CO[C@H](COc2nc(-c3cnn(C)c3)cc3ncccc23)CN1 (relative stereo) [Compound 2.26, 7-(1-methyl-1H-pyrazol-4-yl)-5-{[(rel-2S,5S)-5-methylmorpholin-2-yl]methoxy}-1,6-naphthyridine] |
| 6.61 | 6.52 | 5.82 | – | C[C@@H]1CO[C@H](COc2nc(-c3cnn(C)c3)cc3ncccc23)CN1 (relative stereo) [Compound 2.27, 7-(1-methyl-1H-pyrazol-4-yl)-5-{[(rel-2S,5R)-5-methylmorpholin-2-yl]methoxy}-1,6-naphthyridine] |
| 7.63 | 7.26 | – | 6.24 | CC(C)(C)n1cc(-c2cc3ncccc3c(OC[C@H]3OC[C@@H]4C[C@H]3N4)n2)cn1 (relative stereo) [Compound 2.106, 7-(1-tert-butyl-1H-pyrazol-4-yl)-5-{[rel-(1R,2S,5S)-3-oxa-6-azabicyclo[3.1.1]heptan-2-yl]methoxy}-1,6-naphthyridine] |
| 7.89 | 8.21 | 5.57 | – | Cc1ccnc2cc(-c3cnn(C(C)(C)C)c3)nc(OC[C@@H]3CNCC(C)(C)O3)c12 (stereo in doubt) [Compound 14.6, 7-(1-tert-butyl-1H-pyrazol-4-yl)-5-[(6,6-dimethylmorpholin-2-yl)methoxy]-4-methyl-1,6-naphthyridine] |
| 8.00 | – | 5.68 | 5.60 | FC(F)Cn1ccc(-c2cc(OC[C@@H]3CNCCO3)c3cccnc3c2)c1 [Compound 7.2, 7-[1-(2,2-difluoroethyl)-1H-pyrrol-3-yl]-5-{[(2S)-morpholin-2-yl]methoxy}quinoline] |
| – | 7.35 | 5.97 | – | Cc1cnc2cc(-c3cnn(C(C)C)c3)nc(OC[C@@H]3CNCC(C)(C)O3)c2c1 [Compound 14.10, 5-{[(2S)-6,6-dimethylmorpholin-2-yl]methoxy}-3-methyl-7-[1-(propan-2-yl)-1H-pyrazol-4-yl]-1,6-naphthyridine] |
| – | 8.21 | 6.10 | – | COCCn1ccc(-c2cc(OC[C@@H]3CNCC(C)(C)O3)c3c(C)ccnc3c2)c1 [Compound 14.11, 5-{[(2S)-6,6-dimethylmorpholin-2-yl]methoxy}-7-[1-(2-methoxyethyl)-1H-pyrrol-3-yl]-4-methylquinoline] |
| – | 8.26 | 6.06 | – | Cc1ccnc2cc(-c3ccn(C4COC4)c3)cc(OC[C@@H]3CNCC(C)(C)O3)c12 [Compound 14.12, 5-{[(2S)-6,6-dimethylmorpholin-2-yl]methoxy}-4-methyl-7-[1-(oxetan-3-yl)-1H-pyrrol-3-yl]quinoline] |
| – | 7.70 | 6.06 | – | CC1(C)CNC[C@@H](COc2nc(-c3cnn(C(C)(C)C)c3)cc3nccc(C(F)(F)F)c23)O1 [Compound 14.13, 7-(1-tert-butyl-1H-pyrazol-4-yl)-5-{[(2S)-6,6-dimethylmorpholin-2-yl]methoxy}-4-(trifluoromethyl)-1,6-naphthyridine] |
